Laboratory results published in article PMC8019157 (Antiviral research, 2021).
Read-outs that look alike come from different tables or passages of the source.

Assays:
[1] = test system: C2C12 skeletal muscle myotubes; assay: Live-cell Ca^2+ imaging; type: cell-based, Mouse
[2] = target: rabbit skeletal muscle ryanodine receptor Ca^2+ release channel (RyR1) (Oryctolagus cuniculus, UniProt P11716); assay: [^3H]ryanodine binding/displacement assay with SR membrane vesicles; conditions: for maximum percent enhancement of [^3H]ryanodine binding over control: 6.7 nM [^3H]ryanodine; for maximum percent enhancement of [^3H]ryanodine binding over control / concentrations that enhanced [^3H]ryanodine binding to RyR1: 2 hr at 37°C
RyR1 = RyR1 (Oryctolagus cuniculus, UniProt P11716); assay: Lipid bilayer single channel recordings of purified RyR1; type: biochemical, rabbit
SERCA1 [3] = target: T1, SERCA1 (Oryctolagus cuniculus, UniProt P04191); assay: SERCA1 ATPase activity; type: biochemical, rabbit
SERCA1 [4] = target: T1, SERCA1; assay: ATP-dependent ^45Ca^2+ accumulation by longitudinal SR vesicles; type: biochemical, rabbit; conditions: for effect on ATP-dependent Ca^2+ transport by SERCA1: 0 – 31.2 μM, 20 min at 37°C
[5] = Drug dissolved in ethanol/water; type: physicochemical; conditions: room temperature (22 °C), HPLC
[6] = cited from earlier work; for Cmax: read-out: plasma Cmax
[7] = 6 μM, antiretroviral-naïve C2C12 myotubes
[8] = Atazanavir 1.56 μM cis, 3.3 μM cis Ca^2+
[9] = Atazanavir 3.12 μM cis, 3.3 μM cis Ca^2+
[10] = Atazanavir 6.78 μM cis, 3.3 μM cis Ca^2+
[11] = Atazanavir 20.00 μM cis, 3.3 μM cis Ca^2+
[12] = Atazanavir 30.00 μM cis, 3.3 μM cis Ca^2+
[13] = Atazanavir […] cis, 3.3 μM cis Ca^2+
[14] = up to five minutes after addition
[15] = 0 – 20 μM, 20 min at 37°C, with and without A23187
[16] = Efavirenz 2.50 μM cis, 3.0 μM cis Ca^2+
[17] = Efavirenz 5.00 μM cis, 3.0 μM cis Ca^2+
[18] = Efavirenz 12.50 μM cis, 3.0 μM cis Ca^2+
[19] = Efavirenz 20.00 μM cis, 3.0 μM cis Ca^2+
[20] = Efavirenz 31.20 μM cis, 3.0 μM cis Ca^2+
[21] = Efavirenz […] cis, 3.0 μM cis Ca^2+
[22] = EFV daily dose of up to 600 mg/day
[23] = 3 μM, antiretroviral-naïve C2C12 cells
[24] = Ritonavir 2.50 μM cis, 3.0 μM cis Ca^2+
[25] = Ritonavir 5.00 μM cis, 3.0 μM cis Ca^2+
[26] = Ritonavir 12.50 μM cis, 3.0 μM cis Ca^2+
[27] = Ritonavir 20.00 μM cis, 3.0 μM cis Ca^2+
[28] = Ritonavir 31.20 μM cis, 3.0 μM cis Ca^2+
[29] = Ritonavir […] cis, 3.0 μM cis Ca^2+

RyR1, sequence (P11716 whole entry): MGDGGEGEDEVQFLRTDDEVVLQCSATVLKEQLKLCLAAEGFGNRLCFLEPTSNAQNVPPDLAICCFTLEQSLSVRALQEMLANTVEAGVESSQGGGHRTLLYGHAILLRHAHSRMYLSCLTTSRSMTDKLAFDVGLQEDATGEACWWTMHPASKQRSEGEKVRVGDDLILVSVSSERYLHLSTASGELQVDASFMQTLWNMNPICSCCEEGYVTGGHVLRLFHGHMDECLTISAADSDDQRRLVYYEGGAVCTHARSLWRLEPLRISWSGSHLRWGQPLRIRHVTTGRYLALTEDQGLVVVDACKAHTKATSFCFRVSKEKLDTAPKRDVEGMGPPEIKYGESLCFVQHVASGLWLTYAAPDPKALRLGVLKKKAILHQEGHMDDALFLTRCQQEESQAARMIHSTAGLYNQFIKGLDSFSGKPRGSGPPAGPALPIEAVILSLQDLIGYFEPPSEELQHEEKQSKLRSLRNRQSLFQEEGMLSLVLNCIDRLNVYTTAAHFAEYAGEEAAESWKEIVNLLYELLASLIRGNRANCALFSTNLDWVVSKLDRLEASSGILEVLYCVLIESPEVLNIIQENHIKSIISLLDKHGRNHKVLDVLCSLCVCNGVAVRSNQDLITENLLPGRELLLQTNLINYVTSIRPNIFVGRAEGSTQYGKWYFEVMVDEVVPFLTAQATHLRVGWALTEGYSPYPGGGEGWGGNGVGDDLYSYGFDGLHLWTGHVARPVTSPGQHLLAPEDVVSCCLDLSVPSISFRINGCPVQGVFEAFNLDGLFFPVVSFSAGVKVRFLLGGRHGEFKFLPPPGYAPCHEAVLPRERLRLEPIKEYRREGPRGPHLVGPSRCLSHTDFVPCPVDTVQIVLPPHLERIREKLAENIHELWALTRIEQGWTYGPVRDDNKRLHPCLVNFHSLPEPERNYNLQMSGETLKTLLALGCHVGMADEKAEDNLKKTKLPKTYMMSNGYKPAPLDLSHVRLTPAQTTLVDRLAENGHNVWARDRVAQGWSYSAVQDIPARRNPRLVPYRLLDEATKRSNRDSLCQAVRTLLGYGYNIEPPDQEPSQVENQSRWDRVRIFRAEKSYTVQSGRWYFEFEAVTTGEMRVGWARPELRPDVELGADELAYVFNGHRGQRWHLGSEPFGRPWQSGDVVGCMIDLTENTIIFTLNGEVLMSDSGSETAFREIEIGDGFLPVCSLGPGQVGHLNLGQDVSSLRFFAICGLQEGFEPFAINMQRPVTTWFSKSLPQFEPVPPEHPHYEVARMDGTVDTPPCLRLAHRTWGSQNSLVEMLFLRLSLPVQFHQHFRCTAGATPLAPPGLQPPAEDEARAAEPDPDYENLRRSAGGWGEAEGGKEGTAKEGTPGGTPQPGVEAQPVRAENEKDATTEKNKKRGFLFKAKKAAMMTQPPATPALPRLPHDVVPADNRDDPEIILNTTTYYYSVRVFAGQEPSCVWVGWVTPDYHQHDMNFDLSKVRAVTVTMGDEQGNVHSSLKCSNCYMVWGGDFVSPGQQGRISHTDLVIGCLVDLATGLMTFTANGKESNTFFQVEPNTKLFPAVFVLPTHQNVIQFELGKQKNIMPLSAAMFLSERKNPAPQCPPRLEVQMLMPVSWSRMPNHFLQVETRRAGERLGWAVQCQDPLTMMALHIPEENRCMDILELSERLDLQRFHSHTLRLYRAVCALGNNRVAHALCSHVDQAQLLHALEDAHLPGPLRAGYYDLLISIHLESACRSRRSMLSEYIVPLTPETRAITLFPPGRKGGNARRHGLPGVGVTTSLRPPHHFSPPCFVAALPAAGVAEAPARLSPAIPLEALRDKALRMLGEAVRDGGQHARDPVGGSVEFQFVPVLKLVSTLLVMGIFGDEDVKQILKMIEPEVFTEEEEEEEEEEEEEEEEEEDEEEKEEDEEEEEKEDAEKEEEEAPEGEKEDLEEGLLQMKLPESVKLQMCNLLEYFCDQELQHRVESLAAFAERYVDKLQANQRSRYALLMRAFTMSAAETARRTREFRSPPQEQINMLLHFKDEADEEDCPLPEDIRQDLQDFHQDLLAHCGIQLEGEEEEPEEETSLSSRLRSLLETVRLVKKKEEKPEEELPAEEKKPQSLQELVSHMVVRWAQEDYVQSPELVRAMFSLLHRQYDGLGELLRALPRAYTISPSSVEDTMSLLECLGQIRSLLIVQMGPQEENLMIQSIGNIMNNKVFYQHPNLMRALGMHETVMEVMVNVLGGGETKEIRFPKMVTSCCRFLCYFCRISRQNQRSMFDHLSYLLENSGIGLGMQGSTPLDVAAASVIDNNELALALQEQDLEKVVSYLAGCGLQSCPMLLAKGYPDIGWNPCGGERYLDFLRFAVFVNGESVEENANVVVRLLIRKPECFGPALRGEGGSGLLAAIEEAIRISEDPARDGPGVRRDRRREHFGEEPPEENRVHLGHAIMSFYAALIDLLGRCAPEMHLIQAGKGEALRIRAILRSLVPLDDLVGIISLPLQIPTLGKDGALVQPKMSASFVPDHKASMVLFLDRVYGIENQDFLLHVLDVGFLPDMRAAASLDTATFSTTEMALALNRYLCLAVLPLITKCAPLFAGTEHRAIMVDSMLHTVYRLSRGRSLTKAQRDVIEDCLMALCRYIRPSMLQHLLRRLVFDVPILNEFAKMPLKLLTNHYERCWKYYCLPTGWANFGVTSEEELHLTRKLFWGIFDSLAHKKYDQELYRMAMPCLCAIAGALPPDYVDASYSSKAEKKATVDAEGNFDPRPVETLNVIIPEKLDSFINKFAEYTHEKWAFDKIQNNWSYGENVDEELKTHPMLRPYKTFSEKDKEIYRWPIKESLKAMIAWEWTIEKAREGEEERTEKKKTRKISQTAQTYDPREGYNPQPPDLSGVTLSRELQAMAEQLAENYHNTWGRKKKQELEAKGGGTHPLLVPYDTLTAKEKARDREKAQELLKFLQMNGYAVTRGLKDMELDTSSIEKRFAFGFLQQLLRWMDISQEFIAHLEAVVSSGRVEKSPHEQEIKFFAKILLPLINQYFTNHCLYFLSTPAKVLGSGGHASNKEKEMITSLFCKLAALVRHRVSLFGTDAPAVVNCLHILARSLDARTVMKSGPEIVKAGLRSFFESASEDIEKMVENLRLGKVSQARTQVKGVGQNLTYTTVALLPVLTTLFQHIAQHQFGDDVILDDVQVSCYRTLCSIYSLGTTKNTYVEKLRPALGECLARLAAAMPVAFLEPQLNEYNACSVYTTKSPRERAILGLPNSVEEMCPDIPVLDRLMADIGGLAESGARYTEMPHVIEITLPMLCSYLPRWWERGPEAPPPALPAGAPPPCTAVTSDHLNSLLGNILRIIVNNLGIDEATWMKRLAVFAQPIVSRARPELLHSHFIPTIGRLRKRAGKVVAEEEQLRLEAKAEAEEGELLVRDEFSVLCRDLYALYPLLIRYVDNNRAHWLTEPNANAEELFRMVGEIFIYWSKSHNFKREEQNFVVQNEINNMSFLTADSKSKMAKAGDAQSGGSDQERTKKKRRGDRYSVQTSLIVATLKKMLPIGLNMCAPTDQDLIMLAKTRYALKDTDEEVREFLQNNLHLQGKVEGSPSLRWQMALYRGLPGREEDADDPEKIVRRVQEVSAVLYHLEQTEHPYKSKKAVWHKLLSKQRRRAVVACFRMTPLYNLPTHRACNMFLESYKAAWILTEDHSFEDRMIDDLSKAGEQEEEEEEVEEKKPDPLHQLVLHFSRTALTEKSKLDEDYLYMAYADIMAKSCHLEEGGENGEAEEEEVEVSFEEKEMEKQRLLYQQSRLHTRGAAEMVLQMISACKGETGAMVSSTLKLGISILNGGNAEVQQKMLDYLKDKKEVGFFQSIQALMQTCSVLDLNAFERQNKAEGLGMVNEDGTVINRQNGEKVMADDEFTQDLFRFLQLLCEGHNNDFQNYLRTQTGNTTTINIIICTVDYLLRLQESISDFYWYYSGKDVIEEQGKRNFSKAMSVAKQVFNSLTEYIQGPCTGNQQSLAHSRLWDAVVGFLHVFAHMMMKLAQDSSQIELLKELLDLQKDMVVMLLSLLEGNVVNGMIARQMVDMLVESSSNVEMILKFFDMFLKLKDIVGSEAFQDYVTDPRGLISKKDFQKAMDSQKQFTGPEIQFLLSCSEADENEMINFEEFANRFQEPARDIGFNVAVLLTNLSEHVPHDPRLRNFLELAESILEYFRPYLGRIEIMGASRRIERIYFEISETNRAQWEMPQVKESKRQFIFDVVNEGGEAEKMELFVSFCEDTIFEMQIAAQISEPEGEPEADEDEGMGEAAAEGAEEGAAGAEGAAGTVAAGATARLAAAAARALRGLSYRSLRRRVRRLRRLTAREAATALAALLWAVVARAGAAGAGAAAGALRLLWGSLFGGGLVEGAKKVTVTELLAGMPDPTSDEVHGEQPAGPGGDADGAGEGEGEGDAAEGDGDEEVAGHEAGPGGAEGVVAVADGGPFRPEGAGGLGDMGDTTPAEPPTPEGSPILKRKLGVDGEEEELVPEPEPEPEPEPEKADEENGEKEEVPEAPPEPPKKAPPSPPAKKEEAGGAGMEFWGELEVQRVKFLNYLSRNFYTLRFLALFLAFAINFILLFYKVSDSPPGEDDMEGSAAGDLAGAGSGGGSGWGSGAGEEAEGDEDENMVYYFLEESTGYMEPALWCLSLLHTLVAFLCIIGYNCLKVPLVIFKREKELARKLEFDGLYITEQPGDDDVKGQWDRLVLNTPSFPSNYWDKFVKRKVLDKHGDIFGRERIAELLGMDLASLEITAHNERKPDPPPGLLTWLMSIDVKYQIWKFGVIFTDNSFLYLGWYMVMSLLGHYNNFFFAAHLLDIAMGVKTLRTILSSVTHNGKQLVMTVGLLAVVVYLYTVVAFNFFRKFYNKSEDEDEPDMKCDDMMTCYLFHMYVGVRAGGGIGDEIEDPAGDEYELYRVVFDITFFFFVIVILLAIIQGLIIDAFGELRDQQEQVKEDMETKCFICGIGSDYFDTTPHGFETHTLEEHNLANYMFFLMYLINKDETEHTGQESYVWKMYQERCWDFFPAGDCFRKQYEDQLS
rabbit skeletal muscle ryanodine receptor Ca^2+ release channel (RyR1), sequence (P11716 whole entry): as above

## COC(=O)N[C@H](C(=O)N[C@@H](Cc1ccccc1)[C@@H](O)CN(Cc1ccc(-c2ccccn2)cc1)NC(=O)[C@@H](NC(=O)OC)C(C)(C)C)C(C)(C)C [ATV, atazanavir]
[1]
  Ca^2+ transient in C2C12 cells pretreated with 50 μM ryanodine for 20 min: attenuated the amplitude
[1]; 6 μM
  diameter of plasma membrane blebs, times larger than that of EFV: ~ 1.5 ×
  effect on plasma membrane of C2C12 cells: blebbing
  rate of Ca^2+ transient rise, times faster than that of EFV: 7.7 ×
  rate of decay of the Ca^2+ transient, times faster than that of EFV: 3 x
[1]; [7]
  mean peak amplitude of the Ca^2+ transient: 4.4 ± 0.1 f.u.
[1]; second dose 6 μM
  response to a second dose in previously exposed C2C12 cells: did not elicit a second Ca^2+ transient
[2]
  EC50: 14.9 ± 1.4 nM
  IC50: 6.2 ± 0.8 µM
  Ki: 1600 ± 200 nM
  maximum percent enhancement of [^3H]ryanodine binding over control: 40.5 ± 5.2%
  concentrations that enhanced [^3H]ryanodine binding to RyR1: 1 to 20 nM
RyR1; 1.6 μM cis ATV, within 15 sec, 3.3 μM cis Ca^2+
  increase in Po of RyR1: 40%
RyR1; 3.2 μM cis ATV
  effect on conductance of RyR1: did not alter the conductance
RyR1; 6.8 μM cis ATV
  Po of RyR1: 0.92 ± 0.10
  conductance of reduced conductance state R’1: 532 ± 34 pS
  current amplitude of RyR1 (reduced conductance state R’1): 74 % of maximum
RyR1; 6.8 μM cis ATV, ± 30 mV holding potential
  dwell time in the opened state: > 25 ms
RyR1; 20.0 μM and 30.0 μM cis ATV
  current amplitude of RyR1 (R’1): 74 % of maximum
RyR1; [8]
  Closed- maximally opened transitions (Hz): 789 ± 25 Hz
  Dwell time closed state: 1.97 ± 0.03 ms
  Dwell time open state: 0.66 ± 0.02 ms
  Po (+30 mV): 0.14 ± 0.01
RyR1; [9]
  Closed- maximally opened transitions (Hz): 1102 ±22 Hz
  Dwell time closed state: 0.62 ± 0.03 ms
  Dwell time open state: 2.83 ± 0.08 ms
  Po (+30 mV): 0.56 ± 0.03
RyR1; [10]
  Closed- maximally opened transitions (Hz): 206 ± 30 Hz
  Dwell time closed state: 0.55 ± 0.07 ms
  Dwell time open state: 25.12 ± 1.52 ms
  Po (+30 mV): 0.92 ± 0.10
RyR1; [11]
  Closed- maximally opened transitions (Hz): 750 ± 55 Hz
  Dwell time closed state: 2.22 ± 0.15 ms
  Dwell time open state: 1.44 ± 0.05 ms
  Po (+30 mV): 0.60 ± 0.04
RyR1; [12]
  Closed- maximally opened transitions (Hz): 142 ±20 Hz
  Dwell time closed state: 5.65 ± 0.06 ms
  Dwell time open state: 0.33 ± 0.01 ms
  Po (+30 mV): 0.11 ± 0.01
RyR1; [13]
  Closed- maximally opened transitions (Hz): 225 ±16 Hz
  Dwell time closed state: 0.43 ± 0.05 ms
  Dwell time open state: 5.70 ± 0.20 ms
  Po (+30 mV): 0.82 ± 0.04
RyR1; [14]
  effect on Po of RyR1 of concentrations lower than 1.6 μM: did not elicit changes in the Po
SERCA1 [3]; [15]
  effect on ATPase activity of SERCA1: biphasic
SERCA1 [3]; concentrations higher than 5.0 μM, with and without A23187
  effect on ATPase activity of SERCA1: decreased the ATPase activity
SERCA1 [3]; concentrations of 0.25 and 5.0 μM, with and without A23187
  effect on ATPase activity of SERCA1: potentiated
SERCA1 [4]
  effect on ATP-dependent Ca^2+ transport by SERCA1: biphasic
SERCA1 [4]; > 5 μM
  effect on Ca^2+ accumulation via SERCA1: inhibiting
SERCA1 [4]; up to 5.0 μM
  effect on Ca^2+ accumulation via SERCA1: potentiating
[5]
  fraction dissolved in ethanol/water (1:1): 12.9%
  stock concentration in ethanol/water (1:1): 3.2 mM
[6]; 300 mg/day ATV
  plasma Cmax: ~ 2.2 μg/ml
  Cmax: ~3 µM
[6]; ATV co-administered with RTV (100 mg/day)
  Cmax: ~6 µM

## O=C1Nc2ccc(Cl)cc2[C@@](C#CC2CC2)(C(F)(F)F)O1 [EFV, efavirenz]
[1]
  Ca^2+ transient in C2C12 cells pretreated with 50 μM ryanodine for 20 min: attenuated Ca^2+ transient
[1]; 6 μM
  duration of the global Ca^2+ transient: about 90 sec
  effect on plasma membrane of C2C12 cells: blebbing
[1]; [7]
  mean peak amplitude of the Ca^2+ transient: 3.9 ± 0.3 f.u.
  rate of Ca^2+ rise: 0.14 ± 0.01 f.u./sec
  rate of Ca^2+ transient decay: 0.04 ± 0.00 f.u./sec
[1]; second dose 6 μM
  response to a second dose in previously exposed C2C12 cells: did not elicit a second Ca^2+ transient
[2]
  Hill slope of displacement curve: 1.6
  concentrations that enhanced [^3H]ryanodine binding to RyR1: 1 to 10 nM
RyR1; 31.2 nM cis EFV (so in the source)
  time after which the channel went into an irreversible shut state: 90 s
RyR1; 240 nM cis EFV, within 15 sec, 3.0 μM cis Ca^2+
  increase in Po of RyR1: eight-fold
RyR1; 2.5 μM cis EFV
  conductance of reduced conductance state R1: 233 ± 15 pS
  reduced conductance state R1, current amplitude: 33 % of maximum
RyR1; 2.5 μM cis EFV, +30 mV
  duration of R1 state: ~ 375 msec
RyR1; 2.5 μM cis EFV, −30 mV
  duration of R1 state: ~ 125 msec
RyR1; 5.0 μM cis EFV
  conductance of reduced conductance state R2: 479 ± 24 pS
RyR1; [16]
  Closed- maximally opened transitions (Hz): 1122 ±22 Hz
  Dwell time closed state: 1.38 ± 0.08
  Dwell time open state: 0.74 ± 0.06
  Po (+30 mV): 0.22 ± 0.01
RyR1; [17]
  Closed- maximally opened transitions (Hz): 1046 ±30 Hz
  Dwell time closed state: 0.56 ± 0.07
  Dwell time open state: 1.01 ± 0.01
  Po (+30 mV): 0.59 ± 0.03
RyR1; [18]
  Closed- maximally opened transitions (Hz): 1005 ±16 Hz
  Dwell time closed state: 0.53 ± 0.46
  Dwell time open state: 1.03 ± 0.05
  Po (+30 mV): 0.69 ± 0.04
RyR1; [19]
  Closed- maximally opened transitions (Hz): 1060 ±25 Hz
  Dwell time closed state: 0.57 ± 0.06
  Dwell time open state: 0.99 ± 0.04
  Po (+30 mV): 0.67 ± 0.04
RyR1; [20]
  Closed- maximally opened transitions (Hz): 1064 ±25 Hz
  Dwell time closed state: 1.53 ± 0.02
  Dwell time open state: 0.73 ± 0.06
  Po (+30 mV): 0.38 ± 0.01
RyR1; [21]
  Closed- maximally opened transitions (Hz): 1125 ±24 Hz
  Dwell time closed state: 4.91 ± 0.43
  Dwell time open state: 0.61 ± 0.07
  Po (+30 mV): 0.08 ± 0.01
RyR1; up to 5 minutes after cis addition
  effect on Po of RyR1 of concentrations lower than 240 nM: no effect
SERCA1 [3]; [15]
  effect on ATPase activity of SERCA1: did not show any significant effect
SERCA1 [4]
  effect on ATP-dependent Ca^2+ transport by SERCA1: no effect
[5]
  fraction dissolved in ethanol/water (1:1): 6.3%
  stock concentration in ethanol/water (1:1): 1.8 mM
[6]; [22]
  plasma Cmax: ~ 2.5 μg/ml
  Cmax: ~8 µM

## CC(C)c1nc(CN(C)C(=O)N[C@H](C(=O)N[C@@H](Cc2ccccc2)C[C@H](O)[C@H](Cc2ccccc2)NC(=O)OCc2cncs2)C(C)C)cs1 [RTV, ritonavir]
[1]
  Ca^2+ transient in C2C12 cells pretreated with 50 μM ryanodine for 20 min: attenuated the amplitude
[1]; 3 μM
  duration of the Ca^2+ transient: about 20 sec
  effect on plasma membrane of C2C12 cells: blebbing
  rate of decay of the Ca^2+ transient, times faster than that of EFV: 3 x
[1]; [23]
  mean rate of Ca^2+ rise: 0.54 ± 0.06 f.u./sec
  peak amplitude of the Ca^2+ transient: 4.3 ± 0.2 f.u
[1]; second dose 3 μM
  response to a second dose in previously exposed C2C12 cells: triggered a second Ca^2+ transient
[2]
  maximum percent enhancement of [^3H]ryanodine binding over control: 62.3 ± 6.2%
  concentrations that enhanced [^3H]ryanodine binding to RyR1: 1 to 60 nM
RyR1; 720 nM cis RTV, 3.0 μM cis Ca^2+
  increase in Po of RyR1: three-fold
RyR1; 3.2 μM cis RTV
  Po of RyR1: 0.15 ± 0.02
  conductance of reduced conductance state R’2: 599 ± 24 pS
  current amplitude of RyR1 (R’2): 84 % of maximum
  reduction of current amplitude of RyR1: 16%
RyR1; 31.2 μM cis RTV
  current amplitude of RyR1 (R’2): 84 % of maximum
RyR1; 31.2 μM cis RTV, +30 mV
  Po of RyR1: 0.92 ± 0.01
RyR1; [24]
  Close - maximally opened transitions (Hz): 998 ± 89 Hz
  Dwell time closed state: 1.01 ± 0.22 ms
  Dwell time open state: 0.68 ± 0.06 ms
  Po (+30 mV): 0.29 ± 0.03
RyR1; [25]
  Close - maximally opened transitions (Hz): 762 ± 45 Hz
  Dwell time open state: 1.22 ± 0.15 ms
  Po (+30 mV): 0.07 ± 0.04
RyR1; [26]
  Close - maximally opened transitions (Hz): 828 ± 40 Hz
  Dwell time open state: 1.64 ± 0.03 ms
  Po (+30 mV): 0.11 ± 0.03
RyR1; [27]
  Close - maximally opened transitions (Hz): 848 ± 37 Hz
  Dwell time closed state: 10.57 ± 1.24 ms
  Dwell time open state: 1.01 ± 0.06 ms
  Po (+30 mV): 0.11 ± 0.02
RyR1; [28]
  Close - maximally opened transitions (Hz): 880 ± 30 Hz
  Dwell time closed state: 0.72 ± 0.09 ms
  Dwell time open state: 1.13 ± 0.09 ms
  Po (+30 mV): 0.92 ± 0.01
RyR1; [29]
  Close - maximally opened transitions (Hz): 773 ± 47 Hz
  Dwell time closed state: 4.25 ± 0.11 ms
  Dwell time open state: 0.35 ± 0.02 ms
  Po (+30 mV): 0.07 ± 0.01
RyR1; [14]
  effect on Po of RyR1 of concentrations lower than 720 nM: did not elicit changes in the Po
SERCA1 [3]; 0.25 to 20 μM, presence or absence of A23187
  effect on ATPase activity of SERCA1: dose-dependently decreased
SERCA1 [4]
  effect on ATP-dependent Ca^2+ transport by SERCA1: dose-dependently inhibited
[5]
  fraction dissolved in ethanol/water (1:1): 1.5%
  stock concentration in ethanol/water (1:1): 0.39 mM
